Results as given in patent US11912701B2, “Protein kinase inhibitors for promoting liver regeneration or reducing or preventing hepatocyte death” (HEPAREGENIX GMBH, priority 2018, dated 2024).

How the values were obtained:
[1] = biological target: T1, MKK7 (Homo sapiens, UniProt O14733); test: 33PanQinase enzyme assay, MKK7; assay type: biochemical; design: purchased ProQinase GmbH, Freiburg, Germany (33PanQinase Assay Service); settings: ratio IC50(MKK7)/IC50(MKK4)
T1 sequence (O14733 1-419): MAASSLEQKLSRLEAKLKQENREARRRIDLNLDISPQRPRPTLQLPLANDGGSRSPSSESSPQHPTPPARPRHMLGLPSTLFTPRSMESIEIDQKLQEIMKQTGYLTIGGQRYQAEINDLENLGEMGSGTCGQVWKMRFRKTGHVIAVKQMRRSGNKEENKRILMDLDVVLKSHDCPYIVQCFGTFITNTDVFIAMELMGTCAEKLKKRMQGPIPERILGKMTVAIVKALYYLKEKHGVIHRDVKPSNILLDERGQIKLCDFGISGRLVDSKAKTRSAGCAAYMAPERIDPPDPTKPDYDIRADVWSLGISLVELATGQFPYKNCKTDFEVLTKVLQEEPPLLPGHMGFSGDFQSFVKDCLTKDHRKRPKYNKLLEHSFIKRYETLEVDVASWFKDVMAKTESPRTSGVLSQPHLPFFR
Procedure, shortened: (§1)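 Off-target selectivity is the ratio IC50(off-target)/IC50(MKK4), with IC50 values from least-squares fitting and single-point data as % residual activity. Reactions of enzyme/substrate mix, ATP and compound ran 60 min at 30° C before H3PO4 stop; ^33P incorporation read on a scintillation counter.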

[2] = biological target: T1, MKK7; test: KINOMEscan competition binding assay, MKK7; design: M1/R419; host or cells: HEK-293; settings: ratio PoC (off-target)/PoC (MKK4)
Procedure, shortened: (§2)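 DNA-tagged kinases expressed in HEK-293 cells compete between immobilized ligand on blocked beads and test compound at 100 nM; kinase retained on beads quantified by qPCR of the tag.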

[3] = biological target: T2, JNK1 (Homo sapiens, UniProt P45983); test: 33PanQinase enzyme assay, JNK1; assay type: biochemical; design: purchased ProQinase GmbH, Freiburg, Germany (33PanQinase Assay Service); settings: ratio IC50(JNK1)/IC50(MKK4)
Procedure, shortened: as §1
Target sequence in this assay (P45983 whole entry): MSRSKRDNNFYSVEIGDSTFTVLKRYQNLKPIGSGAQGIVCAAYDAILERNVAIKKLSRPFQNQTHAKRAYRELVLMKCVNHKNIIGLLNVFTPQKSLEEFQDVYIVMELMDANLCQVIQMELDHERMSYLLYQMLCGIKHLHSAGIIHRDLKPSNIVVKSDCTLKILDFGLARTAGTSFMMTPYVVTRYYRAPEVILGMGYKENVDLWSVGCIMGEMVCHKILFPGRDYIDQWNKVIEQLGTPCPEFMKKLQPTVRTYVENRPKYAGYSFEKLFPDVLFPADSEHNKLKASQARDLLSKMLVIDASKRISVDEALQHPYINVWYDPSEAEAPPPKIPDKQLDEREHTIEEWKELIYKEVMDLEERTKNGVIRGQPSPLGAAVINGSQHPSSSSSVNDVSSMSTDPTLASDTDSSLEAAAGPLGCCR

[4] = biological target: T3, BRaf (Homo sapiens, UniProt P15056); test: 33PanQinase enzyme assay, BRaf; assay type: biochemical; settings: ratio IC50(BRaf)/IC50(MKK4)
T3 construct: purchased ProQinase GmbH, Freiburg, Germany (33PanQinase Assay Service)
Procedure, shortened: as §1

[5] = biological target: T3, BRaf; test: KINOMEscan competition binding assay, BRaf; settings: ratio PoC (off-target)/PoC (MKK4)
Procedure, shortened: as §2

[6] = biological target: T4, MKK4 (Homo sapiens, UniProt P45985); test: KINOMEscan competition binding assay, MKK4; settings: residual percent of control binding (PoC) at 100 nM
T4 construct: S84/D399; host or cells: HEK-293
T4 sequence (P45985 84-399): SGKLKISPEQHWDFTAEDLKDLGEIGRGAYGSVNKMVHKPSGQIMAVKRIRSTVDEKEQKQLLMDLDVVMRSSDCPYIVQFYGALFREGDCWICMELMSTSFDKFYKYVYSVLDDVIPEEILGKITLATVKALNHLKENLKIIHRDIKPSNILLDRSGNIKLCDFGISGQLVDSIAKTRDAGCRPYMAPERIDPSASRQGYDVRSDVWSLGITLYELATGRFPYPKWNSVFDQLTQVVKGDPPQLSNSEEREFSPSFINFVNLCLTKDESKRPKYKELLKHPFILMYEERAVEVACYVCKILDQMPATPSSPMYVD
Procedure, shortened: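 Tested at 100 nM and reported as percent of control binding (PoC). MKK4 was produced in HEK-293 cells and DNA-tagged. Displacement from ligand-coated, blocked beads was read by qPCR of eluted kinase.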

[7] = biological target: T2, JNK1; test: KINOMEscan competition binding assay, JNK1; design: M1/Q384; host or cells: HEK-293; settings: ratio PoC (off-target)/PoC (MKK4)
Procedure, shortened: as §2
Target sequence in this assay (P45983 1-384 isoform P45983-2): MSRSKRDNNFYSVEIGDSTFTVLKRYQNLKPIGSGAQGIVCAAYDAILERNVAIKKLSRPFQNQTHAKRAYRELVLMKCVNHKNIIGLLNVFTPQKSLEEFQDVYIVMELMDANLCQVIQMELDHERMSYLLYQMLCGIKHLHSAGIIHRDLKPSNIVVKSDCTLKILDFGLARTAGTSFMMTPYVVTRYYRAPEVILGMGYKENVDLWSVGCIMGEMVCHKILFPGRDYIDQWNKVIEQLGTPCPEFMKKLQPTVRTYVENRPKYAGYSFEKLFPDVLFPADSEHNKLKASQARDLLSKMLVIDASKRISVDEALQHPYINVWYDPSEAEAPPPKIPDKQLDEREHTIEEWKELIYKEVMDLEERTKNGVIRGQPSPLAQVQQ

[8] = biological target: T5, MKK4 (Homo sapiens, UniProt P45985); test: 33PanQinase enzyme assay, MKK4; assay type: biochemical; settings: assay 'IC50'; read-out: Potency MKK4 (IC50)
T5 construct: purchased ProQinase GmbH, Freiburg, Germany (33PanQinase Assay Service)
T5 sequence (P45985 1-399): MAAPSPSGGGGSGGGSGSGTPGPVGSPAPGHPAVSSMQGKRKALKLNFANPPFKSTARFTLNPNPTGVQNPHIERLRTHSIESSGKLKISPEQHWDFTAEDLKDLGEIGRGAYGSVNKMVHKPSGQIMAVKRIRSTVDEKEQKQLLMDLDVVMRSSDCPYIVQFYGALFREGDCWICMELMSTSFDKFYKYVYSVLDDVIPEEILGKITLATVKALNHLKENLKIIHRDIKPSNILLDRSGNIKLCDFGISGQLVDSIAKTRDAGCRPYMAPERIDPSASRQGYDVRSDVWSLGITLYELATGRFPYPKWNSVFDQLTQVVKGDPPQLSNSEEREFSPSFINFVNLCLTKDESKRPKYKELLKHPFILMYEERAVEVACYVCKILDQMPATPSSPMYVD
Procedure, shortened: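 Inhibition measured as 33Pi transfer to substrate after a 60-min, 30 °C reaction, acid-stopped and scintillation-counted.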

T3 sequence (P15056 whole entry, species assumed): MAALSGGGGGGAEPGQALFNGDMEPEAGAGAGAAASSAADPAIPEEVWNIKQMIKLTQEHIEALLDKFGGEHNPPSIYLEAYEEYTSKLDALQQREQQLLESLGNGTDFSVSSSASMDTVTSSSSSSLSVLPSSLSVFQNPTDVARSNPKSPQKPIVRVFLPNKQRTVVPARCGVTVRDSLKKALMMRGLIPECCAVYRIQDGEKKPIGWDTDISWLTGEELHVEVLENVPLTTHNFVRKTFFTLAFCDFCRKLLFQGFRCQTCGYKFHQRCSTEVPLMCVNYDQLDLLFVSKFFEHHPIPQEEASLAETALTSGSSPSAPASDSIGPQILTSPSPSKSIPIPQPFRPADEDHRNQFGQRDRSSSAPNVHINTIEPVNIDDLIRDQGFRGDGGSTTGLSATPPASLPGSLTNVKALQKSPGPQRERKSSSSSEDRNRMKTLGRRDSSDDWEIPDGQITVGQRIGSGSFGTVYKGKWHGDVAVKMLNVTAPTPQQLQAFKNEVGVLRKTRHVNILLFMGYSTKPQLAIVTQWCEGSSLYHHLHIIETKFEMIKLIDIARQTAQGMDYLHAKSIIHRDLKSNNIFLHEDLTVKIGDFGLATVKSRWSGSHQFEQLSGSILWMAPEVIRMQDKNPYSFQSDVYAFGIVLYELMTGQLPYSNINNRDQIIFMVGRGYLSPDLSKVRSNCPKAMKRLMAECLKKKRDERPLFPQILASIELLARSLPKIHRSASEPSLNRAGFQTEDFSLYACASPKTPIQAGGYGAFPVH

Row | Compound | Selectivity IVIKK7, IC50(off-target)/IC50(MKK4) [1] | selectivity based on % Ctrl @100 nM vs. MKK7 [2] | Selectivity Braf, IC50(off-target)/IC50(MKK4) [4] | selectivity based on % Ctrl @100 nM vs. Braf [5] | MKK4 [% Ctrl @ 100 nM [6] | selectivity based on % Ctrl @100 nM vs. JNK1 [7] | IC50 [8] [µM] | Selectivity JNK1, IC50(off-target)/IC50(MKK4) [3]
1 | O=C(c1ccc(F)c(NS(=O)(=O)CCC(F)(F)F)c1F)c1c[nH]c2ncc(-c3cnc(N4CCCCC4)nc3)cc12 [Example 181, N-(2,6-difluoro-3-(5-(2-(piperidin-1-yl)pyrimidin-5-yl)-1H-pyrrolo[2,3-b]pyridine-3-carbonyl)phenyl)-3,3,3-trifluoropropane-1-sulfonamide] | +++ (IC50(off-target)/IC50(MKK4) > 100) | +++ (Ratio > 100) | +++ (IC50(off-target)/IC50(MKK4) > 100) | +++ (Ratio > 100) | +++ (PoC < 1) | +++ (Ratio > 100) | 0.1 to 1 | ++ (100 ≥ IC50(off-target)/IC50(MKK4) > 10)
2 | CCCS(=O)(=O)Nc1ccc(F)c(C(=O)c2c[nH]c3ncc(-c4ccc(C(=O)O)cc4)cc23)c1F [Example 108, 4-(3-(2,6-difluoro-3-(propylsulfonamido)benzoyl)-1H-pyrrolo[2,3-b]pyridin-5-yl)benzoic acid] | +++ (IC50(off-target)/IC50(MKK4) > 100) | +++ (Ratio > 100) | ◯ (3 ≥ IC50(off-target)/IC50(MKK4)) | ++ (100 ≥ ratio > 10) | +++ (PoC < 1) | +++ (Ratio > 100) | < 0.1 | + (10 ≥ IC50(off-target)/IC50(MKK4) > 3)
3 | CCCS(=O)(=O)Nc1c(F)ccc(C(=O)c2c[nH]c3ncc(-c4ccc(N(C)C)nc4)cc23)c1F [Example 161, N-(3-(5-(6-(dimethylamino)pyridin-3-yl)-1H-pyrrolo[2,3-b]pyridine-3-carbonyl)-2,6-difluorophenyl)propane-1-sulfonamide] | +++ (IC50(off-target)/IC50(MKK4) > 100) | +++ (Ratio > 100) | ++ (100 ≥ IC50(off-target)/IC50(MKK4) > 10) | +++ (Ratio > 100) | +++ (PoC < 1) | +++ (Ratio > 100) | < 0.1 | ++ (100 ≥ IC50(off-target)/IC50(MKK4) > 10)
4 | C=Cc1ccc(-c2cnc3[nH]cc(C(=O)c4ccc(F)c(NS(=O)(=O)CCC)c4F)c3c2)cn1 [Example 163, N-(2,6-difluoro-3-(5-(6-vinylpyridin-3-yl)-1H-pyrrolo[2,3-b]pyridine-3-carbonyl)phenyl)propane-1-sulfonamide] | +++ (IC50(off-target)/IC50(MKK4) > 100) | +++ (Ratio > 100) | ++ (100 ≥ IC50(off-target)/IC50(MKK4) > 10) | +++ (Ratio > 100) | +++ (PoC < 1) | +++ (Ratio > 100) | < 0.1 | ++ (100 ≥ IC50(off-target)/IC50(MKK4) > 10)
5 | COc1ccc(-c2cnc3[nH]cc(C(=O)c4ccc(F)c(NS(=O)(=O)CCC(F)(F)F)c4F)c3c2)cn1 [Example 158, N-(2,6-difluoro-3-(5-(6-methoxypyridin-3-yl)-1H-pyrrolo[2,3-b]pyridine-3-carbonyl)phenyl)-3,3,3-trifluoropropane-1-sulfonamide] | +++ (IC50(off-target)/IC50(MKK4) > 100) | +++ (Ratio > 100) | ++ (100 ≥ IC50(off-target)/IC50(MKK4) > 10) | +++ (Ratio > 100) | +++ (PoC < 1) | +++ (Ratio > 100) | < 0.1 | +++ (IC50(off-target)/IC50(MKK4) > 100)
6 | CCCS(=O)(=O)Nc1ccc(F)c(C(=O)c2c[nH]c3ncc(-c4ccc(OC)c(OC)c4)cc23)c1F [Example 105, N-(3-(5-(3,4-dimethoxyphenyl)-1H-pyrrolo[2,3-b]pyridine-3-carbonyl)-2,4-difluorophenyl)propane-1-sulfonamide] | +++ (IC50(off-target)/IC50(MKK4) > 100) | ++ (100 ≥ ratio > 10) | ◯ (3 ≥ IC50(off-target)/IC50(MKK4)) | ◯ (3 ≥ Ratio) | ++ (1 ≤ PoC < 3) | ++ (100 ≥ ratio > 10) | 0.1 to 1 | ++ (100 ≥ IC50(off-target)/IC50(MKK4) > 10)
7 | CCCS(=O)(=O)Nc1ccc(F)c(C(=O)c2c[nH]c3ncc(-c4ccc(C(N)=O)cc4)cc23)c1F [Example 109, 4-(3-(2,6-difluoro-3-(propylsulfonamido)benzoyl)-1H-pyrrolo[2,3-b]pyridin-5-yl)benzamide] | +++ (IC50(off-target)/IC50(MKK4) > 100) | +++ (Ratio > 100) | ◯ (3 ≥ IC50(off-target)/IC50(MKK4)) | + (10 ≥ ratio > 3) | +++ (PoC < 1) | +++ (Ratio > 100) | 0.1 to 1 | + (10 ≥ IC50(off-target)/IC50(MKK4) > 3)

Second part, led by results:

Row | Selectivity IVIKK7, IC50(off-target)/IC50(MKK4) [1] | selectivity based on % Ctrl @100 nM vs. MKK7 [2] | Selectivity Braf, IC50(off-target)/IC50(MKK4) [4] | selectivity based on % Ctrl @100 nM vs. Braf [5] | MKK4 [% Ctrl @ 100 nM [6] | selectivity based on % Ctrl @100 nM vs. JNK1 [7] | IC50 [8] [µM] | Compound | Selectivity JNK1, IC50(off-target)/IC50(MKK4) [3]
8 | +++ (IC50(off-target)/IC50(MKK4) > 100) | +++ (Ratio > 100) | +++ (IC50(off-target)/IC50(MKK4) > 100) | +++ (Ratio > 100) | +++ (PoC < 1) | +++ (Ratio > 100) | 0.1 to 1 | CCCS(=O)(=O)Nc1c(F)ccc(C(=O)c2c[nH]c3ncc(-c4cnc(C(F)(F)F)nc4)cc23)c1F [Example 184, N-(2,6-difluoro-3-(5-(2-(trifluoromethyl)pyrimidin-5-yl)-1H-pyrrolo[2,3-b]pyridine-3-carbonyl)phenyl)propane-1-sulfonamide] | ++ (100 ≥ IC50(off-target)/IC50(MKK4) > 10)
9 | +++ (IC50(off-target)/IC50(MKK4) > 100) | +++ (Ratio > 100) | +++ (IC50(off-target)/IC50(MKK4) > 100) | +++ (Ratio > 100) | +++ (PoC < 1) | +++ (Ratio > 100) | 0.1 to 1 | CCCS(=O)(=O)Nc1c(F)ccc(C(=O)c2c[nH]c3ncc(-c4cnc(Cl)cn4)cc23)c1F [Example 211, N-(3-(5-(5-chloropyrazin-2-yl)-1H-pyrrolo[2,3-b]pyridine-3-carbonyl)-2,6-difluorophenyl)propane-1-sulfonamide] | ++ (100 ≥ IC50(off-target)/IC50(MKK4) > 10)
